{"source": "paper PMC3523108", "about": "(European biophysics journal : EBJ, 2009)", "biological_target": "bovine serum albumin (BSA) (Bos taurus, UniProt P02769)", "sequence (P02769 25-607)": "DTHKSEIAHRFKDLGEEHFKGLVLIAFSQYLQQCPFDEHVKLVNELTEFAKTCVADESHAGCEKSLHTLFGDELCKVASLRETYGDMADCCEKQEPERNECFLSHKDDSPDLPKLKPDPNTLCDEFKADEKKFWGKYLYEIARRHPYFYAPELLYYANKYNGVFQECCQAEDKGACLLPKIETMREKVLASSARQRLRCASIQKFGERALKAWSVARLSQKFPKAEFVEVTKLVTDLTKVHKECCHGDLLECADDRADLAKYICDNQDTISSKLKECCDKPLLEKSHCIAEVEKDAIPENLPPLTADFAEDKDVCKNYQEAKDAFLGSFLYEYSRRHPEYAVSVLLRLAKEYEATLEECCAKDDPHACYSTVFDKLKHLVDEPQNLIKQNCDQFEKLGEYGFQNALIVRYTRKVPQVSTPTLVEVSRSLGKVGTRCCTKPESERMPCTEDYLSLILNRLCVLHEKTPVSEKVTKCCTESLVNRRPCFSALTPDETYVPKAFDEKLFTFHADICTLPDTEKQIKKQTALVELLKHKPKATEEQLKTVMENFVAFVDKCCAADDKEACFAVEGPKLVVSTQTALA", "format": "binding", "conditions": "slope of log((F0−F)/F) vs log[Q], Eq. 2; sensitizer 10^−6–7 × 10^−6 M", "data": [{"smiles": "C=CC1=C(C)c2cc3[nH]c(cc4nc(cc5[nH]c(cc1n2)c(C)c5CCC(=O)O)C(CCC(=O)O)=C4C)c(C)c3C=C", "note": "[PP3, Protoporphyrin IX]", "values": [{"measurement": "n (number of binding sites in BSA)", "result": "0.993 ± 0.082"}]}]}
